In patent US6051718A, “PDE IV inhibiting 2-cyanoiminoimidazole derivatives” (Janssen Pharmaceutica, N.V., priority 1996, dated 2000) one finds IC50 data, which are given here for 17 compounds.

The target of the assay is T1, recombinant human MNL phosphodiesterase PDE IV B (Homo sapiens, UniProt Q07343).
T1 construct: made in house
T1 sequence (Q07343 whole entry): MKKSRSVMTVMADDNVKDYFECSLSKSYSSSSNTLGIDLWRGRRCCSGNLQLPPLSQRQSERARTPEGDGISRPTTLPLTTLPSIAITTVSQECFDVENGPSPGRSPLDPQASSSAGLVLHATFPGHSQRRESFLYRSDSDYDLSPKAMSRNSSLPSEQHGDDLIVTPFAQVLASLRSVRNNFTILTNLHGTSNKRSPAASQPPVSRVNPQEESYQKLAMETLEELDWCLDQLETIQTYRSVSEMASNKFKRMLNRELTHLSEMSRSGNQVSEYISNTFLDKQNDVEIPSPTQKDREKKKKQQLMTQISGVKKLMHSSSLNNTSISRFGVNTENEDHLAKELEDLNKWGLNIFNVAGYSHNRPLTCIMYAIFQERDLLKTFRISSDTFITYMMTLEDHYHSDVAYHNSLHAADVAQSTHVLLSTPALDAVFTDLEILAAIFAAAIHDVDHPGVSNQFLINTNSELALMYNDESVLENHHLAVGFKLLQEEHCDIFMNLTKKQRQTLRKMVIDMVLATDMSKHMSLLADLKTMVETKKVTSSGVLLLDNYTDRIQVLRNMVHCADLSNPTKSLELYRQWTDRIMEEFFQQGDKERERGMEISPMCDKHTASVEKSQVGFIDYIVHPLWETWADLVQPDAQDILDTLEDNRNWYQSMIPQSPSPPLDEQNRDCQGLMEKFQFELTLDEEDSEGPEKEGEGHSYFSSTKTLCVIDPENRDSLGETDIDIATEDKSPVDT
As to the kind of experiment: Inhibition of recombinant human mononuclear lymphocyte (MNL) phosphodiesterase type IV B produced in insect cells with a baculovirus vector. The class given is biochemical. The following applies: 3H-cAMP 0.8 μM, 10 minutes, 37° C., pH 8, DMSO 1%. The protocol: Example C.1: Inhibition of Recombinant Human Mononuclear Lymphocyte (MNL) Phosphodiesterase Type IV B Produced in Insect Cells with a Baculovirus Vector
The alleviating and/or curing effect of the instant compounds on allergic and atopic diseases was assessed by an in vitro assay system to detect an inhibiting effect on the recombinant human MNL phosphodiesterase type IV B.
Seventy-two hours after infection with recombinant baculovirus, the insect cells were harvested and pelleted at 500 g for 5 minutes. The cells were lysed in 10 ml lysis-buffer consisting of 20 mM Tris, 10 mM EGTA, 2 mM Na2 EDTA, 1% Triton-X-100, 1 mM Na3 VO4, 10 mM NaF, 2 μg/ml of leupeptine, pepstatine and aprotinine, 0.3 μg/ml benzamidine and 100 μg/ml TPCK pH 7.5. After 5 minutes on ice, solubilized cells were centrifuged at 4000 rpm for 15 minutes at 4° C. The resulting supernatant was filtered through a 0.45 μm filter (Millipore) and brought to TBS buffer (50 mM Tris, 150 mM NaCl pH 7.4).
After washing the column with equilibration buffer, PDE IV was eluted in 1.5 ml fractions containing 37.5 μl 1M Tris pH 8. The fractions were dialyzed overnight against 20 mM Tris, 2 mM Na2 EDTA and 400 mM NaCl pH 7.5 and tested for PDE IV activity. Indentification was done on SDS PAGE and Western Blot (anti-FLAG-M2). Active fractions were pooled, brought to 10% glycerol and stored at -70° C.
The incubation mixture (pH 8) (200 μl) contained 20 mM Tris, 10 mM magnesium sulphate, 0.8 μM ^3 H-cAMP (310 mCi/mmole) and the phosphodiesterase type IV, the amount depending on the enzymatic activity. […] When the effect of different compounds on phosphodiesterase activity was tested, the medium without cAMP was incubated with the compound(s) or its carrier (DMSO-1% final concentration) for 5 minutes. […] After cooling to room temperature, alkaline phosphatase (0.25 μg/ml) was added and the mixture was incubated at 37° C. for 20 min. 100 μl of the mixture was subsequently applied to a GF-B filter-microtiter-plate (Millipore) filled with 300 μl DEAE-Sephadex-A25 suspension. The plate was washed 3 times with 75 μl 20 mM Tris pH 7.5 and the filtrates were collected for counting in the Packard Top Count scintillation counter.
The inhibiting effect of the present compounds on recombinant human MNL phosphodiesterase PDE IV B was measured at different concentrations of the instant compounds.
Consider `CC(Cn1cc[nH]c1=NC#N)c1ccc(OC(F)F)c(OCC2CC2)c1` (centres unmarked) [Compound 6], for which the IC50 (in general, the concentration that gives 50% inhibition) is 0.0224 µM.
As for `CC(Cn1cc[nH]c1=NC#N)c1ccc(OC(F)F)c(OC2CCCC2)c1` (centres unmarked) [Compound 4], the IC50 is 0.0153 µM.
Turning to `COc1ccc(C(C)Cn2cc[nH]c2=NC#N)cc1OC1CCCC1` (centres unmarked) [Compound 3], the IC50 worked out at 0.03 µM.
`CC(Cn1cc[nH]c1=NC#N)c1ccc(OC(F)F)c(OC2CCOC2)c1` (racemic) [Compound 2, (±)-[1-[2-[4-(difluoromethoxy)-3-[(tetrahydro-3-furanyl)oxy]phenyl]-propyl]-1,3-dihydro-2H-imidazol-2-ylidene]cyanamide]: the half-inhibitory concentration (IC50) is 0.1 µM.
Take `N#CN=c1[nH]ccn1CCc1ccc(OC(F)F)c(OC2CCCC2)c1` [Compound 5]: the IC50 came to 0.0266 µM.
For `CC(Cn1ccnc1NC#N)c1ccc(OC(F)F)c(OCCCCCc2ccccc2)c1` (centres unmarked) [Compound 11], the IC50 worked out at 0.0327 µM.
For the compound `COc1ccc(C(C)CN2CCNC2=NC#N)cc1OC1CCCC1` (racemic) [Compound 1, (±)-[1-[2-[3-(cyclopentyloxy)-4-methoxyphenyl]propyl]-2-imidazolidinylidene] cyanamide], the IC50 turned out to be 0.33 µM.
On to `COc1ccc(CCn2cc[nH]c2=NC#N)cc1OC1Cc2ccccc2C1` [Compound 20], for which the IC50 stood at 0.0765 µM.
In the case of `COc1ccc(C(C)Cn2ccnc2NC#N)cc1OC1CCCC1` (single isomer, unassigned) [Compound 13], the IC50 is 0.0222 µM.
As to `COc1ccc(C(C)Cn2cc[nH]c2=NC#N)cc1OCCCCCc1ccccc1` (centres unmarked) [Compound 9], the IC50 stood at 0.0361 µM.
On to `COc1ccc(C(C)Cn2ccnc2NC#N)cc1OCCCCCc1ccccc1` (single isomer, unassigned) [Compound 19], for which the IC50 came to 0.0375 µM.
For the compound `COc1ccc(C(C)Cn2cc[nH]c2=NC#N)cc1OCC1CC1` (centres unmarked) [Compound 8], the IC50 was 0.0565 µM.
Regarding `COc1ccc(C(C)Cn2cc[nH]c2=NC#N)cc1OC1CCOC1` (centres unmarked) [Compound 10], the IC50 came out at 0.196 µM.
`COc1ccc(C(C)Cn2ccnc2NC#N)cc1OCCCCCc1ccccc1` (single isomer, unassigned) [Compound 18]: the IC50 was determined as 0.0409 µM.
Regarding `COc1ccc(C(C)Cn2ccnc2NC#N)cc1OCC1CC1` (single isomer, unassigned) [Compound 14], the IC50 stood at 0.0272 µM.
Consider `COc1ccc(C(C)Cn2ccnc2NC#N)cc1OCC1CC1` (single isomer, unassigned) [Compound 15], for which the IC50 is 0.0335 µM.
Regarding `COc1ccc(C(C)Cn2ccnc2NC#N)cc1OC1CCCC1` (single isomer, unassigned) [Compound 12], the IC50 was 0.0219 µM.
